# According to patent US20250171821A1, “HIF-1 ACTIVATORS AND USES THEREOF” (Ramot at Tel-Aviv University Ltd., priority 2022, published 2025):
# Legend:
# osteoblasts = assay: Cell-Titer assay of cellular ATP levels, osteoblasts; format: cell-based; details: 48 hours
# Description: MG-63 human osteosarcoma cell lines were obtained from the American Type Culture Collection (ATCC, Manassas, VA, USA). Cells were cultured in α-MEM supplemented with 10% FCS, 100 U/ml penicillin, and […] streptomycin at 37° C. in a humidified atmosphere incubator containing 5% CO2. Before treatment with ML228, 5,000 and 50,000 cells/well were seeded in a 96 or 24 well-plate, respectively.
# The live/dead viability assay (cat #04511-1KT-F Merck, Germany) was used according to the manufacturer's protocol. Briefly, cells were incubated in a medium supplemented with the indicated concentrations of ML228 for 48 hours. Fluorescein diacetate (6.6 μg/mL) and propidium iodide (5 μg/mL) (Merck, NJ, USA) were prepared in DMEM and added to the cells. Confocal images were captured after addition of the dyes with ZEISS LSM 900, Laser Scanning Microscope. Fluorescence readouts were obtained with ex/em of 490/515 nm and 535/617 nm for green and red, respectively. Cellular ATP levels were quantified using the cell-titer assay (Promega, WI, USA cat #G7570).
# [1] = tested on: human gingival fibroblasts cells (HGF); assay: Collagen-I immunofluorescence in human fibroblasts treated with ML228; format: cell-based; details: 48 hours
# Description: Human fibroblasts were isolated from fragments of healthy masticatory oral mucosa (from the posterior hard palate) collected during periodontal surgeries. Informed consent was obtained from all patients. Shallow tissue samples (without submucosa) with a diameter of approximately 2 mm were excised using a #15C scalpel blade. Exclusion criteria for potential tissue donors were smoking, any systemic disease, pregnancy or lactation, or a history of periodontal disease. Cells were separated into connective tissue and epithelium using dispase II (Sigma-Aldrich, Rehovot, Israel) at 2 mg/mL for two hours at 37° C.
# Cells were cultured to sub-confluence on a 96-well plate culture plate or on round-glass cover slips in a 24 well plate and incubated with ML228 at 37° C. in 5% CO2 for 24-96 hours. Cells were fixed for 20 minutes with 4% paraformaldehyde in phosphate-buffered saline (PBS), washed 3 times with PBS, blocked with 2% bovine serum albumin diluted in PBS, which contains 0.1% Triton X-100 for 20 minutes. Fixed cells were incubated with 1:200 of rabbit anti-human type I collagen (Abcam, Cambridge, UK) for 1 hour at 25° C. […] Fluorescence readouts were obtained with excitation/emission (ex/em) of 495/519 nanometer (nm; green) and 340/488 nm (blue) (for FIGS. 2B and 2D); or with ex/em of 358/461 nm (blue), 495/519 nm (green) and 652/668 nm (red) (for FIG. 5A).
# All images were analyzed with the computer-based image analysis system (Image J) using the Fiji 2 software (National Institute of Health). Equal field areas were selected for analysis and quantification of fluorescence signals. Quantification of fluorescence signal intensity measured by color threshold and normalized against β-tubulin intensity. Total collagen was evaluated by total fluorescence area intensity.
# The effect of ML228 (chemical structure thereof is depicted in FIG. 1), a known activator of HIF, on fibroblasts and osteoblasts was analyzed. […] Collagen-I levels were evaluated by immunohistochemistry via Collagen-I antibody and a fluorescently-labeled secondary antibody. […]
structure (smiles),measurement,setting,value
"c1ccc(-c2ccc(CNc3nc(-c4ccccn4)nnc3-c3ccccc3)cc2)cc1 [ML228, N-([1,1′-Biphenyl]-4-ylmethyl)-6-phenyl-3-(2-pyridinyl)-1,2,4-triazin-5-amine]",IC50,"osteoblasts; Homo sapiens, Osteoblast, read-out: IC50 (ATP levels relative to non-treated cells)",567 nM
same,metabolically active cell viability as measured by ATP levels,osteoblasts; increasing ML228 concentrations,decrease in metabolically active cell viability
same,Collagen-I levels compared to baseline of non-treated cells,"[1]; ML228 above 312 nM, normalized to cell number (DAPI), FIG. 5C",more than two-fold higher
same,Collagen-I levels at higher concentrations,"[1]; ML228 above 10 μM (10 or 20 μM), HGF cells",gradually decrease
same,concentration at which maximum collagen levels were observed,[1]; fibroblasts,5 µM
